For 9 compounds, Activity, inhibition and IC50 results are on record in ChEMBL document CHEMBL3860022, “Do cinnamylideneacetophenones have antioxidant properties and a protective effect toward the oxidation of phosphatidylcholines?” (Eur J Med Chem, 2016).

Usually IC50 stands for the point on the concentration scale where inhibition reaches its midpoint.

Structures are written as SMILES. Active and inactive are the calls of the source. The calls are words filed in the database; no cut-off is given here.

What all share (type): functional
Assay [1] can be described thus: Antioxidant activity assessed as AAPH free radical scavenging activity by measuring trolox equivalent at 75 to 350 umol/L measured every min during 240 mins by fluorescein-based oxygen radical absorption capacity assay.
A short description of assay [2]: Antioxidant activity assessed as inhibition of fenton reaction-mediated PLPC peroxidation at 2 mg/ml incubated in dark for 1 hr by mass spectroscopic analysis.
A short description of assay [3]: Antioxidant activity assessed as inhibition of fenton reaction-mediated PLPC peroxidation at 2 mg/ml incubated in dark for 3 days by mass spectroscopic analysis.
The nature of assay [4]: Antioxidant activity assessed as inhibition of fenton reaction-mediated PLPC peroxidation by measuring ratio of [dMPC + H]+/[PLPC + H]+ at 2 mg/ml incubated in dark for 1 hr to 7 days by mass spectroscopic analysis.
A short description of assay [5]: Antioxidant activity assessed as inhibition of fenton reaction-mediated PLPC peroxidation by measuring ratio of oxidized PLPC/unmodified PLPC at 2 mg/ml incubated in dark for 1 hr to 7 days by mass spectroscopic analysis.
Assay [6] can be described thus: Antioxidant activity assessed as DPPH free radical scavenging activity by measuring trolox equivalent at 1.5 to 35 umol/L after 60 mins.
Assay [7] is described as follows: Antioxidant activity assessed as DPPH free radical scavenging activity after 60 mins.
A short description of assay [8]: Antioxidant activity assessed as AAPH free radical scavenging activity by measuring trolox equivalent at 0.5 to 10 umol/L measured every min during 240 mins by fluorescein-based oxygen radical absorption capacity assay.
Assay [9] is described as follows: Antioxidant activity assessed as AAPH free radical scavenging activity measured every min during 240 mins by fluorescein-based oxygen radical absorption capacity assay.
A short description of assay [10]: Antioxidant activity assessed as AAPH free radical scavenging activity by measuring trolox equivalent at 1.5 to 35 umol/L measured every min during 240 mins by fluorescein-based oxygen radical absorption capacity assay.
The nature of assay [11]: Antioxidant activity assessed as inhibition of fenton reaction-mediated PLPC peroxidation by measuring ratio of oxidized PLPC/unmodified PLPC at 1 mg/ml incubated in dark for 1 hr to 7 days by mass spectroscopic analysis.
Assay [12] can be described thus: Antioxidant activity assessed as inhibition of fenton reaction-mediated PLPC peroxidation by measuring ratio of dMPC/unmodified PLPC at 1 mg/ml incubated in dark for 1 hr to 7 days by mass spectroscopic analysis.
Assay [13] in a line: Antioxidant activity assessed as DPPH free radical scavenging activity by measuring trolox equivalent at 10 to 100 umol/L after 60 mins.
A short description of assay [14]: Antioxidant activity assessed as inhibition of fenton reaction-mediated PLPC peroxidation by measuring ratio of [dMPC + H]+/[PLPC + H]+ at 1 mg/ml incubated in dark for 1 hr to 7 days by mass spectroscopic analysis.
A short description of assay [15]: Antioxidant activity assessed as inhibition of fenton reaction-mediated PLPC peroxidation at 1 mg/ml incubated in dark for 3 days by mass spectroscopic analysis.
Assay [16] is described as follows: Antioxidant activity assessed as AAPH free radical scavenging activity by measuring trolox equivalent at 12.5 to 100 umol/L measured every min during 240 mins by fluorescein-based oxygen radical absorption capacity assay.
Assay [17] can be described thus: Antioxidant activity assessed as DPPH free radical scavenging activity by measuring trolox equivalent at 5 to 35 umol/L after 60 mins. A general note: The DPPH test is a chemical assay of radical scavenging.

As to `O=C(/C=C/c1ccccc1)c1ccccc1`, in assay [1], the Activity is 0.049 equiv.

Take `COc1cc(/C=C/C(=O)CC(=O)/C=C/c2ccc(O)c(OC)c2)ccc1O` [CURCUMIN]: the inhibition result in assay [2], in assay [3], in assay [4] and in assay [5] was “Active” each time. Further, the figures for the Activity in assay [6] and in [8] were 1.42 equiv and 3.9 equiv, respectively. Further, the figures for the IC50 in assay [7] and in assay [9] were 32.5 µM and 1.8 µM, respectively.

For `O=C(/C=C/C=C/c1ccccc1)c1ccc(O)cc1`, the Activity in assay [10] turned out to be 4.1 equiv.

As to `O=C(/C=C/C=C/c1ccc(O)cc1)c1ccccc1`, the inhibition entry in [11] and in assay [12] was “Active” each time. The Activity is 0.29 equiv in [13] and 4.8 equiv in [10]. For the same compound, the IC50 in [7] came out at 32.5 µM; in [9], 1.2 µM.

On to `O=C(/C=C/C=C/c1ccccc1)c1ccccc1`, for which the inhibition entry in assay [11] and in assay [12] was “Active” each time. The Activity in assay [1] was found to be 0.06 equiv.

Take `Cc1c(C)c2c(c(C)c1O)CCC(C)(C(=O)O)O2` (stereo not given) [TROLOX]: the IC50 in assay [7] was 52.2 µM; in assay [9], 4.2 µM.

Regarding `COc1ccc(/C=C/C=C/C(=O)c2ccccc2)cc1`, the inhibition entry in assay [14], in [15] and in [11] was “Active” throughout. Also, the Activity in [16] was 0.17 equiv.

As for `COc1ccc(C(=O)/C=C/C=C/c2ccccc2)cc1`, the Activity in assay [16] turned out to be 0.12 equiv.

As to `N#CC(C#N)C(/C=C/c1ccccc1)CC(=O)c1ccccc1` (stereo not given), the Activity in [17] came to 0.9 equiv; in assay [10], 2.7 equiv. Also, the figures for the half-inhibitory concentration (IC50) in [7] and in assay [9] were 74 µM and 3.3 µM, respectively.
